Experimental data from patent US8309583B2, “Desferrioxamine conjugates, derivatives and analogues” (priority 2007, dated 2012).
Structures can show the parent of a compound that is named as a salt.

Key:
[1] = RP-HPLC relative hydrophobicity / logP correlation; conditions: C18 column, H2O/ACN 0.1% TFA gradient, free or Fe(III)-loaded ligand
[2] = test system: SK-N-MC cells; assay: 59Fe uptake into SK-N-MC cells from 59Fe-loaded transferrin; assay type: cell-based; conditions: comparison with DFOB
[3] = test system: SK-N-MC neuroepithelioma cells; assay: 59Fe efflux from 59Fe-prelabeled SK-N-MC cells; assay type: cell-based; conditions: compound 50 μM, 3 h, 37° C.; SK-N-MC cells prelabeled 3 h with 59Fe-loaded transferrin (0.75 μM)
[4] = oral; cited from earlier work
[5] = standards used in RP-HPLC logP correlation; cited from earlier work

## CC(=O)N(O)CCCCCNC(=O)CCC(=O)N(O)CCCCCNC(=O)CCC(=O)N(O)CCCCCNC(=O)C12CC3CC(CC(C3)C1)C2 [adamantane-DFOB, adamantane-desferrioxamine B]
[1]
  relative hydrophobicity / water solubility from RP-HPLC retention: least water soluble
[1]; listed as adamantane-desferrioxamine B
  relative hydrophobicity / water solubility from RP-HPLC retention: significantly more hydrophobic
[2]
  competition with 59Fe-loaded transferrin for 59Fe, preventing accumulation of Fe within the cell: more efficient
[3]
  Fe efflux (59Fe released from prelabeled cells): 28%

## CC(=O)N(O)CCCCCNC(=O)CCC(=O)N(O)CCCCCNC(=O)CCC(=O)N(O)CCCCCN [Desferal, mesylate salt of desferrioxamine B]
[4]
  fraction of an orally administered dose absorbed: 15%

## CC(=O)N(O)CCCCCNC(=O)CCC(=O)N(O)CCCCCNC(=O)CCC(=O)N(O)CCCCCNC(=O)COc1ccc(C)cc1 [4-methylphenoxyacetate-DFOB, 4-methylphenoxyacetate-desferrioxamine B]
[2]
  competition with 59Fe-loaded transferrin for 59Fe, preventing accumulation of Fe within the cell: more efficient
[3]
  Fe efflux (59Fe released from prelabeled cells): 31.6%

## CC(=O)N(O)CCCCCNC(=O)CCC(=O)N(O)CCCCCNC(=O)CCC(=O)N(O)CCCCCNC(=O)CCCC[C@@H]1SC[C@@H]2NC(=O)N[C@@H]21 [Biotin-DFOB, biotin-desferrioxamine B]
[3]
  Fe efflux (59Fe released from prelabeled cells): 6.6%

## CC(=O)N(O)CCCCCNC(=O)CCC(=O)N(O)CCCCCNC(=O)CCC(=O)N(O)CCCCCNC(=O)c1ccc2c(c1)OCCOCCOCCOCCO2 [benzo-15-crown-5-4-carboxylate-DFOB, benzo-15-crown-5-4-carboxylate-desferrioxamine B]
[3]
  Fe efflux (59Fe released from prelabeled cells): 9.6%

## CC(=O)N(O)CCCCCNC(=O)CCC(=O)N(O)CCCCCNC(=O)CCC(=O)N(O)CCCCCN [DFOB, desferrioxamine B, reference compound]
[3]
  Fe efflux (59Fe released from prelabeled cells): 10.8%

## Oc1cccc2ccccc12 [α-naphthol]
[5]
  logP: 2.7
